Test systems include A498 renal; A549 NSCLC; ACHN renal; EKVX NSCLC; HOP-92 NSCLC; HT29 colon; K-562 leukemia; KM12 colon; LOX IMVI melanoma; MDA-N; NCI-H460 lung; NCI-H522 lung; NCI/ADR-RES ovarian; RPMI-8226 leukemia; SNB-19 CNS; T-47D breast; U251 CNS.
What all share (assay): growth of human tumour cells (NCI), 48 h

Data on 10 compounds can be found in PubChem BioAssay (NCI).

Molecules are shown by their SMILES.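 96-well plates; 48 h exposure; 5 concentrations. Endpoints by linear interpolation between flanking doses. Not reached: highest tested concentration assigned. GI50 marks 50% less growth. The concentration for full growth arrest is given as TGI.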 A value given as a limit tells only on which side of the number the result lay.

With `O=C(Nc1ccc(Cl)cc1)c1cc(S(=O)(=O)Nc2n[nH]c(Nc3ccc4ccccc4c3)n2)c(SSc2cc(Cl)c(C(=O)Nc3ccc(Cl)cc3)cc2S(=O)(=O)Nc2n[nH]c(Nc3ccc4ccccc4c3)n2)cc1Cl`, the TGI with A498 renal was 52.1 µM; in the test with A549 NSCLC it was more than 100 µM; in the test with ACHN renal, 53.9 µM; in the test with EKVX NSCLC it was more than 100 µM; in the test with HOP-92 NSCLC, 59.8 µM; in the test with HT29 colon, 38.2 µM. In addition, the TGI is 47.3 µM with K-562 leukemia; 50.4 µM in the test on KM12 colon; 37.8 µM in the test on LOX IMVI melanoma; more than 84.2 µM with MDA-N; 73.7 µM in the test with NCI-H460 lung; 50.8 µM in the test on NCI-H522 lung. Also, the TGI in the test on NCI/ADR-RES ovarian was more than 85.4 µM; with RPMI-8226 leukemia it was more than 74.7 µM; with SNB-19 CNS, 50.4 µM; in the test with T-47D breast, 43.6 µM; in the test with U251 CNS, 58.6 µM.

`CCOC(=O)CC[C@H](N)C(=O)N[C@@H](Cc1ccc(N(CCCl)CCCl)cc1)C(=O)OCC`: the TGI is 42 µM in the test on A498 renal; more than 48.9 µM in the test on A549 NSCLC; 1.72 µM in the test on ACHN renal; 6.11 µM in the test on EKVX NSCLC; 1.62 µM with HOP-92 NSCLC; 4.19 µM in the test on HT29 colon. For the same compound, the TGI in the test on K-562 leukemia was more than 33 µM; in the test with KM12 colon it was 11.6 µM; in the test on LOX IMVI melanoma, 2.94 µM; with MDA-N it was 2.57 µM; in the test with NCI-H460 lung it was 2.48 µM; in the test on NCI-H522 lung, 2.54 µM. Besides, the TGI in the test with NCI/ADR-RES ovarian is 21.1 µM; with RPMI-8226 leukemia, 28.4 µM; in the test with SNB-19 CNS, 18.1 µM; in the test with T-47D breast it was 8.49 µM; in the test on U251 CNS it was 7.39 µM. In the test with NCI/ADR-RES ovarian, the GI50 was 3.7 µM.

As to `CC(=O)C(C(=O)c1ccc(C)cc1)[C@@H]1OC(C)(C)O[C@@H]1[C@H]1COC(C)(C)O1` (stereo partly specified), the TGI in the test with A498 renal is more than 75.7 µM; in the test on A549 NSCLC, more than 91.6 µM; with ACHN renal it was 32.5 µM; in the test on EKVX NSCLC, more than 100 µM; in the test on HOP-92 NSCLC it was more than 100 µM; in the test on HT29 colon, 20 µM. Also, the TGI in the test with K-562 leukemia is more than 32 µM; in the test with KM12 colon, 65.6 µM; with LOX IMVI melanoma, 21.8 µM; in the test on MDA-N, 54.3 µM; in the test with NCI-H460 lung, more than 88.9 µM; with NCI-H522 lung, 11.3 µM. Also, the TGI in the test on NCI/ADR-RES ovarian was more than 70.9 µM; in the test with RPMI-8226 leukemia it was 12.5 µM; in the test on SNB-19 CNS, more than 48.3 µM; with T-47D breast it was more than 49.8 µM; with U251 CNS it was 18.5 µM.

Turning to `O=S(=O)(O)CCSSCCS(=O)(=O)O`, the TGI with A498 renal, in the test with A549 NSCLC, in the test with ACHN renal, in the test on EKVX NSCLC, in the test with HOP-92 NSCLC and in the test on HT29 colon was more than 1000 µM throughout. Besides, the TGI in the test with K-562 leukemia, with KM12 colon, in the test with LOX IMVI melanoma, in the test with MDA-N, with NCI-H460 lung and in the test on NCI-H522 lung was more than 1000 µM each time. The TGI in the test with NCI/ADR-RES ovarian, with RPMI-8226 leukemia, in the test on SNB-19 CNS, with T-47D breast and with U251 CNS was more than 1000 µM in each case.

Turning to `CC(NC(=O)OCc1ccccc1)NC(=O)OC(C)(C)C` (stereo unspecified), the TGI in the test on A498 renal, in the test on A549 NSCLC, in the test with ACHN renal, with EKVX NSCLC, in the test on HOP-92 NSCLC and with HT29 colon was more than 100 µM throughout. Besides, the TGI with K-562 leukemia, in the test on KM12 colon, in the test on LOX IMVI melanoma, with MDA-N, with NCI-H460 lung and in the test with NCI-H522 lung was more than 100 µM in each case. Moreover, the TGI in the test with NCI/ADR-RES ovarian, in the test on RPMI-8226 leukemia, with SNB-19 CNS, with T-47D breast and in the test on U251 CNS was more than 100 µM in each case.

Consider `COc1cc(C(=O)NNC(=O)c2cc(Br)ccc2NC(=O)c2cccs2)cc(OC)c1OC`, for which the TGI with A498 renal came out at 55 µM; in the test on A549 NSCLC, 61.3 µM; with ACHN renal it was 43.6 µM; in the test on EKVX NSCLC, 27 µM; with HOP-92 NSCLC it was 46.9 µM; in the test with HT29 colon it was 41.1 µM. For the same compound, the TGI in the test on K-562 leukemia was 11.9 µM; with KM12 colon, more than 100 µM; in the test with LOX IMVI melanoma, 37.1 µM; in the test with MDA-N, 74.9 µM; with NCI-H460 lung it was 73.6 µM; with NCI-H522 lung it was 53.3 µM. Further, the TGI was 62 µM in the test on NCI/ADR-RES ovarian; 43.5 µM in the test with RPMI-8226 leukemia; 74.3 µM in the test on SNB-19 CNS; more than 100 µM with T-47D breast; 44.6 µM in the test on U251 CNS.

Consider `C=CCN1C(=O)/C(=C/c2ccc(Cl)cc2)N=C1SC/C=C/C`, for which the TGI with A498 renal is more than 100 µM; in the test on A549 NSCLC it was more than 100 µM; in the test with ACHN renal it was more than 100 µM; in the test with EKVX NSCLC it was more than 100 µM; in the test with HOP-92 NSCLC, 84.2 µM; in the test on HT29 colon, more than 100 µM. In addition, the TGI in the test with K-562 leukemia, with KM12 colon, in the test on LOX IMVI melanoma, in the test with MDA-N, in the test with NCI-H460 lung and in the test on NCI-H522 lung was more than 100 µM throughout. The TGI in the test on NCI/ADR-RES ovarian was more than 100 µM; in the test on RPMI-8226 leukemia it was 47.3 µM; with SNB-19 CNS it was more than 100 µM; with T-47D breast, more than 100 µM; in the test with U251 CNS, 84.8 µM.

For `C1C2CC3CC1CC(c1nn4c(C56CC7CC(CC(C7)C5)C6)nnc4s1)(C2)C3`, the TGI in the test on A498 renal, with A549 NSCLC, with ACHN renal, with EKVX NSCLC, in the test on HOP-92 NSCLC and in the test with HT29 colon was more than 100 µM in each case. The TGI in the test with K-562 leukemia, in the test on KM12 colon, in the test with LOX IMVI melanoma, in the test with MDA-N, with NCI-H460 lung and with NCI-H522 lung was more than 100 µM in each case. Besides, the TGI with NCI/ADR-RES ovarian, in the test on RPMI-8226 leukemia, in the test on SNB-19 CNS, in the test with T-47D breast and with U251 CNS was more than 100 µM each time.

For the compound `COC(=O)c1ccccc1/C=C1\Cc2c(ccc3c2CCC3)C1=O`, the TGI in the test on A498 renal, with A549 NSCLC, in the test on ACHN renal, in the test with EKVX NSCLC, with HOP-92 NSCLC and in the test on HT29 colon was more than 100 µM in each case. The TGI in the test with K-562 leukemia, in the test on KM12 colon, in the test on LOX IMVI melanoma, in the test on MDA-N, in the test with NCI-H460 lung and with NCI-H522 lung was more than 100 µM throughout. Moreover, the TGI in the test with NCI/ADR-RES ovarian, with RPMI-8226 leukemia, in the test with SNB-19 CNS, in the test on T-47D breast and with U251 CNS was more than 100 µM in each case.

In the case of `CC1=NN(c2ccccc2)C2(C1)C(Cl)C(=O)N2c1nc2ccccc2s1` (stereo unspecified), the TGI with A498 renal, in the test with A549 NSCLC, in the test on ACHN renal, in the test on EKVX NSCLC, in the test on HOP-92 NSCLC and with HT29 colon was more than 100 µM in each case. The TGI in the test with K-562 leukemia was more than 100 µM; with KM12 colon it was more than 100 µM; with LOX IMVI melanoma it was 26.3 µM; in the test on MDA-N, more than 100 µM; in the test on NCI-H460 lung, more than 100 µM; with NCI-H522 lung, 58.9 µM. Besides, the TGI in the test on NCI/ADR-RES ovarian was 68.5 µM; in the test on RPMI-8226 leukemia, 67.2 µM; in the test on SNB-19 CNS, more than 100 µM; with T-47D breast, more than 100 µM; with U251 CNS it was more than 100 µM.
